Columns and labels:
[1] = biological target: T1, human MR (Homo sapiens, UniProt P08235); assay: GAL4-MR cell based assay, antagonist format
T1 construct: expressed in transfected cells; host or cells: CV-1 (African Green Monkey Kidney Cells), transiently transfected with pCMX-GAL4-MR
T1 sequence (P08235 671-984): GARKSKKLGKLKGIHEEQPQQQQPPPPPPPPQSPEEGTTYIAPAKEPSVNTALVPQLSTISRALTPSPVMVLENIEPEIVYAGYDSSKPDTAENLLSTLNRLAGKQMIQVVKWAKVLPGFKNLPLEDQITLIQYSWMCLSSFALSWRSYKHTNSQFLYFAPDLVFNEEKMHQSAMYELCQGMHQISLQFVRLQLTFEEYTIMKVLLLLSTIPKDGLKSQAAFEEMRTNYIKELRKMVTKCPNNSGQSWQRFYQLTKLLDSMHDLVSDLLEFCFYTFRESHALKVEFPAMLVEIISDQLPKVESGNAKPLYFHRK
Protocol: Compound activity was determined in a cell-based assay using a GAL4-MR chimera to identify compounds with the ability to modulate MR activity.
The pCMX-GAL4-MR expression plasmid was constructed by cloning nucleotides encoding amino acids 671 to 984 of human MR (see GenBank sequence AAA59571) into the vector pCMX-GAL4 (Perlmann et al., 1993,Genes & Development 7:1411-1422) comprising nucleotides encoding for amino acids 1-147 of the GAL4 DNA binding domain.
The TK-MH 100x4-Luc (GAL4UAS-TK-Luciferase) reporter construct was constructed by insertion of four copies of the Gal4 UAS (Kang et al. 1993, J. Biol. Chem. 268:9629-9635) into the Hind III site of TK-Luc. The parental plasmid, TK-Luc, was prepared by insertion of the Herpes simplex virus thymidine kinase gene promoter (−105 to +51) obtained from the plasmid pBLCAT2 by digestion with HindIII and XhoI (described in Luckow et al., 1987, Nuc. Acid. Res. 15:5490) into the plasmid MMTV-LUC described by Hollenberg and Evans, 1988, Cell 55:899-906) after removal of MMTV-LTR promoter sequence from MMTV-LUC via digestion with HindIII and XhoI. Correct cloning was confirmed by restriction digestion and/or sequencing.
Assays were performed using CV-1 (African Green Monkey Kidney Cells) (ATCC) cells grown in T175 flasks at a density of 3×10^6 cells/flask in DMEM with 5% FBS. Cells were transfected one day after plating at 70-80 percent confluency with a DNA mixture containing (per T175 flask) 9 […] pCMX-GAL4-MR, 9 μg TK-MH100x4-Luc, and 2 μg pCMX β-Gal using the transfection reagent FuGENE6 (Roche Molecular Biochemicals, Indianapolis, Ind.) following recommended protocols and instructions provided by the manufacturer, and incubated with transfection reagents for 5 hours at 37° C.
Transfected cells were trypsinized, resuspended in media, and 45 μL was added to assay plates at a density of approximately 5,000 cells/well using a MultiDrop dispenser (MTX Lab Systems, Inc., VA). The assay plates containing both compounds and screening cells were incubated for approximately 20 hours at 37° C. and 5% CO2 in a tissue culture incubator.
After incubation of the transfected cells with compounds, Lysis buffer (1% Triton X-100, 10% Glycerol, 5 mM DTT, 1 mM EGTA, 25 mM Tricine, pH 7.8) and Luciferin assay buffer (0.73 mM ATP, 22.3 mM Tricine, 0.11 mM EDTA, 33.3 mM DTT, 0.2M MgSO4, 11 mM Luciferin, 6.1 mM Coenzyme A, 0.01 mM HEPES, pH 7.8) were prepared. Media was removed from the plates and lysis buffer and luciferin assay buffer mixed in a 1:1 ratio and then 30 μl of the mixture was added to each well using a Multidrop dispenser. Plates were read on the Northstar (Applied Biosystems, Foster City, Calif.) and data was analyzed using ActivityBase (ID Business Solutions, Ltd., Guildford, Surrey, UK). If required, luciferase values may be normalized for transfection efficiency by measuring β-galactosidase activity based on expression from the pCMX-βGal expression plasmid as described previously (Willy et al., 1995, Gene & Development, 9:1033-1045).
(§1) The following table provides in vitro MR activity data of representative compounds described in the Examples. […] The “+” mark under the selectivity column is given to those compounds having greater than ten-fold antagonist activity against MR compared to at least one nuclear receptor selected from AR, ERα, GR and PR, as determined from the GAL4-AR, GAL4-ERα, GAL4-GR and GAL4-PR assays. The “++” mark under the selectivity column identifies those compounds having greater than ten-fold antagonist activity against MR compared to the four nuclear receptors AR, ERα, GR and PR, as determined from the GAL4-AR, GAL4-ERα, GAL4-GR and GAL4-PR assays.

[2] = system: AR, ERα, GR and PR; assay: selectivity assays GAL4-AR, GAL4-ERα, GAL4-GR and GAL4-PR, antagonist mode; assay type: cell-based; conditions: antagonist activity against MR compared to AR
Protocol: In certain cases, compounds were also evaluated for activity in selectivity assays with other steroid hormone receptor members, including AR, ER, GR and PR, as well as GAL4 alone. Steroid receptors used for selectivity assays were essentially generated as described above for pCMX-GAL4-MR, and comprised the LBD and a portion of the hinge region of the nuclear receptor of interest cloned in frame into the vector pCMX-GAL4 (Perlmann et al., 1993,Genes & Development 7:1411-1422) as described above.
Assays run in antagonist mode included agonists as follows: AR; 25 nM dihydrotestosterone (DHT), ER; 4.5 nM estradiol, GR; 20 nM dexamethasone, and PR; 2 nM medroxyprogesterone (MPA), respectively. Assays run in agonist mode contained no supplemental compounds.
as §1

IC50 [1] [nM]	SMILES	Selectivity [2]
1000 to 5000	Cc1cc(C(=O)Nc2ccc(S(=O)(=O)NC(=N)N)cc2)c(C)n1-c1ccccc1C(F)(F)F [2,5-Dimethyl-1-[2-(trifluoromethyl)phenyl]-1H-pyrrole-3-carboxylic acid (4-guanidinosulfonyl-phenyl)-amide]	+ (greater than ten-fold antagonist activity against MR compared to at least one nuclear receptor selected from AR, ERα, GR and PR)
< 500	Cc1c(C(=O)Nc2ccc(S(C)(=O)=O)cc2)cc(-c2ccc(F)cc2)n1-c1ccccc1C(F)(F)F [5-(4-fluorophenyl)-2-methyl-1-(2-trifluoromethylphenyl)-1H-pyrrole-3-carboxylic acid (4-methanesulfonyl-phenyl) amide]	++ (greater than ten-fold antagonist activity against MR compared to the four nuclear receptors AR, ERα, GR and PR)
< 500	Cc1c(C(=O)Nc2ccc(S(N)(=O)=O)cc2)cn(C)c1-c1ccccc1C(F)(F)F [1,4-dimethyl-5-(2-trifluoromethyl-phenyl)-1H-pyrrole-3-carboxylic acid (4-sulfamoyl-phenyl)-amide]	++ (greater than ten-fold antagonist activity against MR compared to the four nuclear receptors AR, ERα, GR and PR)
< 500	Cc1cc(C(=O)Nc2ccc(S(N)(=O)=O)cc2)c(C)n1-c1ccccc1C(F)(F)F [2,5-Dimethyl-1-(2-trifluoromethyl-phenyl)-1H-pyrrole-3-carboxylic acid (4-sulfamoyl-phenyl)-amide]	++ (greater than ten-fold antagonist activity against MR compared to the four nuclear receptors AR, ERα, GR and PR)
< 500	Cc1c(C(=O)Nc2ccc(S(C)(=O)=O)cc2)nn(C)c1-c1ccccc1C(F)(F)F [1,4-dimethyl-5-(2-trifluoromethyl-phenyl)-1H-pyrazole-3-carboxylic acid (4-methanesulfonyl-phenyl)-amide]	+ (greater than ten-fold antagonist activity against MR compared to at least one nuclear receptor selected from AR, ERα, GR and PR)
